Measurements: patent publication US20030018027A1 (priority 2001, published 2003)

Assays:
[1] = tested on: kainate receptors; conditions: cited from earlier work
[2] = tested on: excessive barking; test: Excessive barking of a Pomeranian with separation anxiety during 30 minutes after every one left the room; type: in vivo, dog (Pomeranian)
Procedure: The following experiment was performed by using an 11 years old Pomeranian (4.5 kg weight) in which a symptom of separation anxiety was confirmed.
The experimental animal was fed in a room which was equipped with an air conditioner keeping 22° C. and were provided with 200 g of canned dog food (Science Diet Maintenance, beef can, Japan Hills Colgate ) twice per day in the morning and in the evening. Water was freely provided. The animals had been habituated in the experimental cages before recording the frequency of excessive barking with a set up video camera. Excessive barking during 30 minutes after every one left the room was recorded for 2 days. The barking frequency on day 1 was 178 times and 203 times on day 2. […] The barking frequency for that recording was 0 (zero).

[3] = tested on: excessive barking; test: Excessive barking of beagles during 5 minutes before feeding after intravenous SKF97541; type: in vivo, dog (beagles); conditions: mean and standard error
Procedure: Two ovariectomized healthy female beagles (10 kg) of 2 years old were used for the following experiments.
(§1) The experiments was performed for seven (7) days as one cycle and the data were recorded, which were repeated for 3 months (12 cycles). The data were statistically processed. The experimental dogs were fed in a room which was equipped with an air conditioner keeping 22° C. During the first 6 days, the animals were fed with 400 g of food (Science Diet Maintenance, dry, Japan Hills Colgate) at 4 o'clock every day. Water was freely provided. The animals were habituated in the experimental cages. The seventh (7th) day in each cycle, the condition was kept except that the indicated amount of SKF97541 ([…] receptor agonist) was intravenously administrated at 2 o'clock P.M. The frequency of barking during 5 minutes before feeding was recorded every day by a video camera. The ratio of the frequency of barking on the day where the animals were received SKF97541 to the mean values of the barking frequency during the first 6 days where the animals were not received SKF97541 is indicated as percentages in Table 1 and FIG. 1.

[4] = General symptom of animals, beagle experiment; type: in vivo, dog (beagles); conditions: beagles, intravenous SKF97541
Procedure: as §1

O=C1N=c2cc([N+](=O)[O-])c([N+](=O)[O-])cc2=NC1=O [DNQX, 6,7-dinitroquinoxaline-2,3-dione]
inhibition of running activity induced by kainate ([1]; rat): inhibited

C=C(C)[C@H]1CN[C@H](C(=O)O)[C@H]1CC(=O)O [kainate]
induction of running activity in rat [1]: induced

CP(=O)(O)CCCN [SKF97541, 3-aminopropyl(methyl)phosphinic acid]
barking frequency during 30 minutes after every one left the room ([2]; SKF97541 intravenous 0.05 mg/kg body weight): did not bark | barking frequency during 30 minutes after every one left the room ([2]; SKF97541 intravenous 0.1 mg/kg body weight): did not bark | (frequency of barking on the administrated day) / (frequency of barking on non-administrated days) ([3]; amount of administrated SKF97541 0.025 (unit not given)): 118.2 ± 0.0% | (frequency of barking on the administrated day) / (frequency of barking on non-administrated days) ([3]; amount of administrated SKF97541 0.05 (unit not given)): 90.2 ± 6.2% | (frequency of barking on the administrated day) / (frequency of barking on non-administrated days) ([3]; amount of administrated SKF97541 0.1 (unit not given)): 44.0 ± 1.1% | (frequency of barking on the administrated day) / (frequency of barking on non-administrated days) ([3]; amount of administrated SKF97541 0.2 (unit not given)): 8.8 ± 8.8% | (frequency of barking on the administrated day) / (frequency of barking on non-administrated days) ([3]; amount of administrated SKF97541 0.5 (unit not given)): 0% | general symptom of animals [4]: no notable point regarding to the general symptom of animals was observed

NCCCC(=O)O [GABA, γ-aminobutyric acid]
barking frequency during 30 minutes after every one left the room ([2]; 150 mg powdered GABA mixed with canned dog food, oral, untreated days 178 and 203 times): 0
